Eight compounds from ChEMBL document CHEMBL1201862, “PubChem BioAssay data set” (2004) can be followed below.

Common to all, as to assay: DTP human tumour cell line panel, 48 h
Assay [1] concerns 786-0.
Assay [2] has as its system A549.
Assay [3] concerns ACHN.
Assay [4] has as its system HCT-15.
Assay [5] concerns HL-60.
The test system of assay [6] is Hs-578T.
For assay [7], the system named is M14.
Assay [8] deals with MCF7.
Assay [9] relates to NCI-H460.
Assay [10] relates to OVCAR-4.
Assay [11] relates to OVCAR-5.
Assay [12] relates to OVCAR-8.
Assay [13] deals with RXF 393.
The test system of assay [14] is SF-539.
For assay [15], the system named is SK-MEL-5.
In assay [16] the test system is SNB-75.
Assay [17] deals with SW-620.
For assay [18], the system named is UACC-257.
Assay [19] concerns UO-31.
For assay [20], the system named is CCRF-CEM.

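Where inhibition never reached the appropriate level, the endpoint shown equals the highest concentration tested. Otherwise, values were interpolated linearly from a five-concentration, 48-hour dose response in 96-well plates. The concentration for 50% growth inhibition is given as GI50.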 The source made the active and inactive calls. No stated cut-off is given here; in the data, active = GI50 up to about 1.1 µM and inactive = higher. Non-standard residues stand in square brackets, D forms with d. Residues, ends and D or L forms follow the SMILES beside them. *: point of attachment. hSer = N[CH](CCO)C(=O)O; Boc = CC(C)(C)OC(=O)* Bounds are passed on as bounds.

Take `O=C1NC2(CN3CCC2CC3)C(=O)N1CN(Cc1ccccc1)c1ccccc1` (stereo not drawn): the GI50 (usually the concentration at which growth is held to half of that of the control) was > 100 µM (inactive) in [1]; 81.1 µM (inactive) in assay [2]; 72.8 µM (inactive) in assay [3]; 41.2 µM in assay [4]; 21.1 µM (inactive) in [5]; > 100 µM (inactive) in assay [6]. Further, the GI50 in assay [7] is 33.7 µM (inactive); in assay [8], 47.9 µM (inactive); in assay [9] it was 29.4 µM (inactive); in assay [10] it was > 100 µM (inactive); in assay [11] it was > 100 µM (inactive); in [12], 57 µM (inactive). Moreover, the GI50 in [13] was 27 µM (inactive); in assay [14] it was 93.8 µM (inactive); in assay [15] it was 85.7 µM (inactive); in [16], > 100 µM (inactive); in assay [17] it was 31.7 µM (inactive); in assay [18], 46 µM (inactive). For the same compound, the GI50 in assay [19] was 25.1 µM (inactive).
With `O=C1/C(=C/c2ccc(Cl)c(Cl)c2)CNC/C1=C\c1ccc(Cl)c(Cl)c1`, the GI50 in [1] is 2.39 µM (inactive); in assay [2] it was 14.8 µM (inactive); in assay [3], 18.1 µM (inactive); in [20], 2.29 µM (inactive); in assay [4], 2.94 µM; in assay [5], 8.39 µM (inactive). In addition, the GI50 in assay [6] is 3.21 µM (inactive); in [7] it was 15.8 µM (inactive); in assay [8], 7.64 µM (inactive); in assay [9] it was 10.3 µM (inactive); in [10], 2.52 µM (inactive); in [11], 18.3 µM (inactive). In addition, the GI50 in assay [12] is 3.92 µM (inactive); in assay [13] it was 14 µM (inactive); in assay [14], 7.87 µM (inactive); in assay [15], 36.5 µM (inactive); in assay [16], 10.8 µM (inactive); in assay [17], 1.38 µM (inactive). Further, the GI50 in assay [18] was 41.2 µM (inactive); in assay [19], 17.5 µM (inactive).
Consider `NS(=O)(=O)c1ccc(NCc2cnc3ccccc3c2)cc1`, for which the GI50 in assay [1] is 39.4 µM (inactive); in assay [2], > 100 µM (inactive); in assay [3], > 100 µM (inactive); in assay [4] it was above 100 µM; in assay [5], 0.412 µM (active); in [6], 51.8 µM (inactive). Further, the GI50 in assay [7] was > 100 µM (inactive); in assay [8], > 100 µM (inactive); in assay [9], > 100 µM (inactive); in assay [10] it was > 100 µM (inactive); in assay [11], > 100 µM (inactive); in [12], 34.7 µM (inactive). In addition, the GI50 was > 100 µM (inactive) in assay [13]; 30.5 µM (inactive) in assay [14]; > 100 µM (inactive) in assay [15]; > 100 µM (inactive) in [16]; > 100 µM (inactive) in [17]; > 100 µM (inactive) in assay [18]. Further, in assay [19], the GI50 was > 100 µM (inactive).
As for `Nc1c(OCC(=O)O)ccc2cc(S(=O)(=O)O)ccc12`, the GI50 is > 100 µM (inactive) in assay [1]; > 100 µM (inactive) in assay [2]; > 100 µM (inactive) in assay [3]; > 100 µM (inactive) in assay [20]; above 100 µM in assay [4]; > 100 µM (inactive) in assay [5]. Moreover, the GI50 in assay [6], in [7], in [8], in assay [9], in assay [10] and in assay [12] was > 100 µM (inactive) in each case. The GI50 in [13], in [14], in assay [15], in assay [16], in assay [17] and in assay [18] was > 100 µM (inactive) throughout. Moreover, the GI50 in assay [19] was > 100 µM (inactive).
Take `CC12CCC([C@H](C(O)C3CCCCC3)C1=O)C2(C)C` (stereo partly drawn): the GI50 is > 100 µM (inactive) in assay [1]; > 100 µM (inactive) in [3]; 31.6 µM (inactive) in assay [20]; above 100 µM in [4]; 13.9 µM (inactive) in assay [5]; > 100 µM (inactive) in [6]. The GI50 in assay [7], in assay [8], in [9], in assay [10], in [11] and in [12] was > 100 µM (inactive) throughout. The GI50 in assay [13] was 75.2 µM (inactive); in assay [14], > 100 µM (inactive); in assay [15] it was 82.2 µM (inactive); in assay [16], > 100 µM (inactive); in [17], > 100 µM (inactive); in assay [18], > 100 µM (inactive). For the same compound, in assay [19], the GI50 is > 100 µM (inactive).
For `N#C[C@H]1Nc2ccccc2[C@@H](O)C1O` (stereo partly drawn), the GI50 in [1] was > 100 µM (inactive); in assay [2], > 100 µM (inactive); in assay [3] it was > 100 µM (inactive); in assay [20], > 100 µM (inactive); in [4], above 100 µM; in [5], > 100 µM (inactive). The GI50 in assay [6], in assay [7], in assay [8], in assay [9], in assay [10] and in [11] was > 100 µM (inactive) throughout. The GI50 in [12], in assay [13], in assay [14], in assay [15], in [16] and in [17] was > 100 µM (inactive) in each case. Further, in [18], the GI50 was > 100 µM (inactive).
For `O=C1N/C(=N/N=C/C(O)C(O)C(O)C(O)CO)N/C1=C\c1cccs1` (stereo not drawn), the GI50 in assay [1] was > 100 µM (inactive); in [2], 94.4 µM (inactive); in [3], > 100 µM (inactive); in assay [20], > 100 µM (inactive); in assay [4] it was above 100 µM; in assay [5], > 100 µM (inactive). Besides, the GI50 in assay [6], in assay [7], in [8], in assay [9], in assay [10] and in [11] was > 100 µM (inactive) throughout. The GI50 in [12], in assay [13], in assay [14], in assay [15], in assay [16] and in assay [17] was > 100 µM (inactive) throughout. Further, the GI50 in assay [18] was > 100 µM (inactive).
On to `COCCC(NC(=O)C(CC(C)C)NC(=O)OC(C)(C)C)C(N)=O` (stereo not drawn) (Boc-Leu-[hSer](Me)-NH2; configuration not given here), for which the GI50 in [1] is > 100 µM (inactive); in assay [2], > 100 µM (inactive); in assay [3], > 100 µM (inactive); in [20], > 100 µM (inactive); in assay [4], above 100 µM; in assay [5], > 100 µM (inactive). The GI50 in assay [6], in [7], in assay [8], in assay [9], in [10] and in assay [12] was > 100 µM (inactive) throughout. Besides, the GI50 in assay [13], in [14], in [15], in [16], in assay [17] and in assay [18] was > 100 µM (inactive) in each case. Moreover, in [19], the GI50 is > 100 µM (inactive).
